Data published in patent publication US10221138B2, “Biaryl derivatives as GPR120 agonists” (LG CHEM, LTD., priority 2013, dated 2019).

The compounds below were run against T1, hGPR120 (Homo sapiens, UniProt Q5NUL3) (assay: Measurement of activity of GPR120 agonist (cell-based calcium fluorescence assay)). Details: CHO-K1 cells expressing Ga16 and hGPR120, Calcium 5 dye fluorescence; activity class; read-out: EC50.
T1 construct: expressed in transfected cells; host or cells: CHO-K1
T1 sequence (Q5NUL3 1-361): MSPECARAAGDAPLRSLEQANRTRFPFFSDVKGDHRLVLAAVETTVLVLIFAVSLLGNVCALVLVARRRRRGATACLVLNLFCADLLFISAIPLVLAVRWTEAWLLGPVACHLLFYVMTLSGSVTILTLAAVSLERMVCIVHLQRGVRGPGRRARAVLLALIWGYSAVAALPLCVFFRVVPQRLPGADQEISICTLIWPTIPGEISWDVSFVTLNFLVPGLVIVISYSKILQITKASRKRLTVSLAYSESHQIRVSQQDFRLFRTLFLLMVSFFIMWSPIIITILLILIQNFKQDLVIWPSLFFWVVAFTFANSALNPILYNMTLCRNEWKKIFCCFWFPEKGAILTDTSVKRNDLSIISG
Experimental: CHO-K1 cells expressing Ga16 and hGPR120 were dispensed into each well of a 96-well plate (3×10^4 cells/100 μl/well) and then incubated in 5% CO2, 37° C. incubator for 18 hours. Each well was treated with 100 μl of Calcium 5 dye (Molecular Devices) solution including 2% DMSO and then incubated in 5% CO2, 37° C. incubator for 1 hour. Serially diluted GPR120 agonists were prepared to a final concentration of 0.5% DMSO in a 96-well plate.
Fluorescence increased by the serially diluted GPR120 agonists is calculated as a relative percent (%) value based on the fluorescence represented by the treatment of 1% DMSO only. […] The calculation of measurement was carried out by using statistical software (Prizm).
Activity is denoted based on the following criteria: […]

Row | Compound | EC50 [nM]
1 | O=C(O)CCCSc1c(F)cc(-c2ccccc2NC2CCCC2)cc1F [Example 161, 4-(2′-cyclopentylamino-3,5-difluoro-biphenyl-4-ylsulfanyl)-butyric acid] | < 200
2 | O=C(O)CCCCOc1c(F)cc(-c2cccnc2SC2CCCC2)cc1F [Example 234, 5-[4-(2-cyclopentylsulfanyl-3-pyridyl)-2,6-difluoro-phenoxy]pentanoic acid] | < 200
3 | O=C(O)CCCOc1c(F)cc(-c2cccc(N3CCCC3)n2)cc1F [Example 12, 4-[2,6-difluoro-4-(6-pyrrolidin-1-yl-2-pyridyl)phenoxy]butyric acid] | < 200
4 | O=C(O)CCCCCOc1c(F)cc(-c2cccnc2OCC2CC2)cc1F [Example 273, 6-[4-[2-(cyclopropylmethoxy)-3-pyridyl]-2,6-difluoro-phenoxy]hexanoic acid] | 200 to 2000
5 | O=C(O)CCCOc1c(F)cc(-c2cccnc2NC2CCCC2)cc1F [Example 73, 4-[4-[2-(cyclopentylamino)-3-pyridyl]-2,6-difluoro-phenoxy]butanoic acid] | 200 to 2000
6 | O=C(O)CCCOc1ccc(-c2ccccc2NC2CCC2)cc1 [Example 88, 4-[4-[2-(cyclobutylamino)phenyl]phenoxy]butanoic acid] | 200 to 2000
7 | O=C(O)CCCOc1ccc(-c2cccc(Oc3ccccc3)n2)cc1 [Example 1, 4-[4-(6-phenoxy-2-pyridyl)phenoxy]butyric acid] | 200 to 2000
8 | CC(C)Oc1ncccc1-c1ccc(SCCCC(=O)O)c(F)c1 [Example 171, 4-[2-fluoro-4-(2-isopropoxy-pyridin-3-yl)-phenylsulfanyl]-butyric acid] | < 200
9 | O=C(O)CCCSc1ccc(-c2cccnc2NC2CCCC2)cc1F [Example 170, 4-[4-(2-cyclopentylamino-pyridin-3-yl)-2-fluoro-phenylsulfanyl]-butyric acid] | < 200
10 | CCCSc1ncccc1-c1cc(F)c(OCCCCCC(=O)O)c(F)c1 [Example 64, 6-[2,6-difluoro-4-(2-propylsulfanyl-3-pyridyl)phenoxy]hexanoic acid] | < 200
11 | Cc1cnc(OC2CCCC2)c(-c2ccc(SCCCC(=O)O)c(F)c2)c1 [Example 186, 4-[4-(2-cyclopentyloxy-5-methyl-pyridin-3-yl)-2-fluoro-phenylsulfanyl]-butyric acid] | < 200
12 | CCCSc1ncccc1-c1cc(F)c(SCCCCC(=O)O)c(F)c1 [Example 257, 5-[2,6-difluoro-4-(2-propylsulfanyl-pyridin-3-yl)-phenylsulfanyl]-pentanoic acid] | < 200
13 | CC(C)Nc1ccccc1-c1cc(F)c(SCCCC(=O)O)c(F)c1 [Example 165, 4-(3,5-difluoro-2′-isopropylamino-biphenyl-4-ylsulfanyl)-butyric acid] | < 200
14 | O=C(O)CCCOc1c(F)cc(-c2cccnc2NCC2CCOCC2)cc1F [Example 112, 4-[2,6-difluoro-4-[2-(tetrahydropyran-4-ylmethylamino)-3-pyridyl]phenoxy]butanoic acid] | > 20000
15 | CC(C)Nc1ncccc1-c1cc(F)c(OCCCC(=O)O)c(F)c1 [Example 76, 4-[2,6-difluoro-4-[2-(isopropylamino)-3-pyridyl]phenoxy]butanoic acid] | 200 to 2000
16 | CC(C)Sc1ncccc1-c1ccc(SCCCC(=O)O)c(F)c1 [Example 163, 4-[2-fluoro-4-(2-isopropylsulfanyl-pyridin-3-yl)-phenylsulfanyl]butyric acid] | < 200
17 | O=C(O)CCCOc1c(F)cc(-c2cc(Cl)ccc2NC2CCCC2)cc1F [Example 95, 4-[4-[5-chloro-2-(cyclopentylamino)phenyl]-2,6-difluoro-phenoxy]butanoic acid] | 200 to 2000
18 | O=C(O)CCCOc1c(F)cc(-c2cccnc2N2CCCC2)cc1F [Example 72, 4-[2,6-difluoro-4-(2-pyrrolidin-1-yl-3-pyridyl)phenoxy]butanoic Acid] | 200 to 2000
19 | CC(CCC(=O)O)Oc1c(F)cc(-c2cccnc2SC2CCC2)cc1F (stereo not shown) [Example 28, 4-[4-(2-cyclobutylsulfanyl-3-pyridyl)-2,6-difluoro-phenoxy]pentanoic acid] | < 200
